“And” between values parts separate entries of the source, which are not always exact repeats. Equal values may be shown once. Where a name gives a salt, the structure may show the parent alone.
Key:
P. aeruginosa biofilms = assay: EBEC, high number biofilms on PEEK membranes, 10^9 to 10^2 CFU/PEEK membrane in 24 hours; format: cell-based; details: Pseudomonas aeruginosa; Table 3B c3; group head missing; read-out: MICs (μg/mL) II: P. aeruginosa
Experimental: In addition to determining the MIC and the MBEC of polyamine compounds against planktonic bacteria and low number biofilms, our group wanted to determine the efficacy of polyamine compounds against high number biofilms. To do so, biofilms were grown on the surface of polyetheretherketone (PEEK) membranes using a membrane biofilm reactor. This reactor is similar to the CDC biofilm reactor, but rather than growing biofilms on coupon surfaces, the reactor was modified to hold PEEK membranes. In short, to grow biofilms within this system, 500 mL of brain heart infusion (BHI) broth were inoculated with 1 mL of a 0.5 McFarland. The reactor was placed on a hot plate set at 34° C. and the bacteria were grown under batch conditions for 24 hours. Following this protocol, biofilms typically grow to 10^9 CFU/PEEK membrane. […] A solution of 10% BHI was then flowed through the reactor at a rate of 6.94 mL/min for an additional 24 hours. PEEK membranes were then removed and placed into 2 mL of CAMHB that contained a desired concentration of polyamine compound or antibiotic. The EBEC was defined as the concentration of antimicrobial required to reduce a biofilm from approximately 10^9 CFU/PEEK membrane to approximately 10^2 CFU/PEEK membrane in a 24-hour period.

human blood = assay: Hemolysis test with diluted human blood (ISO 10993-4); format: cell-based
Source text: Procedure: The PBS used in testing was calcium and magnesium free. The method has been validated using human blood from one donor. This is in compliance with ISO 10993-4 which states due to differences in blood activity, human blood should be used where possible. Furthermore, pooling unmatched human blood from multiple donors may cause red blood cell agglutination which in turn could cause hemolysis; this supports the use of a single donor.
The blood was drawn using vacutainers containing 0.1 M sodium citrate at a ratio of 9:1 (3.2% anticoagulant to blood). The blood in this test was used within four hours of blood draw. The collected blood was refrigerated until testing was performed.
A hemoglobin standard was diluted with Drabkin's reagent to give solutions at concentrations of 0.80, 0.60, 0.40, 0.30, 0.20, 0.10, 0.02, and 0.01 mg/ml. These solutions were allowed to stand at room temperature for a minimum of five minutes. The absorbance was read on a spectrophotometer at 540 nanometers (nm). A standard curve was determined with the absorbance values and the standard concentrations of hemoglobin.
Human blood was centrifuged at 700-800×g for 15 minutes. A 1 mL aliquot of the plasma was added into 1 mL of Drabkin's reagent, and placed at room temperature for a minimum of 15 minutes. The absorbance was read on a spectrophotometer at 540 nm. The hemoglobin concentration was determined from the standard curve and then multiplied by a factor of 2 to obtain the total plasma free hemoglobin. The plasma free hemoglobin was less than 2 mg/mL (actual value 0.221 mg/mL). A 20 μL aliquot of blood was added to 5 mL of Drabkin's reagent in duplicate and allowed to stand at room temperature for a minimum of 15 minutes. The absorbance was read on a spectrophotometer at 540 nm then multiplied by 251 to account for the dilution.
Based on the plasma hemoglobin and the blood absorbance against Drabkin's reagent, the blood was diluted out to 10±1 mg/mL with PBS. To verify the blood dilution, a 300 μL aliquot of this blood was added to 4.5 mL of Drabkin's reagent in triplicate and allowed to stand at room temperature for a minimum of 15 minutes. The absorbance was read on a spectrophotometer at 540 nm then multiplied by 16 to account for the dilution.
Glass test tubes were labeled appropriately. Both samples were prepared the same way. The samples were allowed to thaw prior to testing. To each test tube, 7 mL of the test article and 1 mL of the diluted blood were added. The controls consisted of the appropriate amount of control material, 7 mL of PBS and 1 mL of blood. Three tubes were prepared for each test article and control. The tubes were incubated at 37±2° C. for 3 hours±5 minutes. Tubes were gently inverted twice at 30 minute intervals throughout the incubation period. A non-hemolytic negative control, a hemolytic positive control and a PBS blank were included.
After incubation, test articles were centrifuged at 700-800×g for 15 minutes and 1 mL of the supernatant fluid was combined with 1 mL of Drabkin's reagent and allowed to stand at room temperature for a minimum of 15 minutes. Following the centrifugation phase, the supernatant of both test articles visually appeared clear and were particulate free. The PBS blank and the negative control supernatant visually appeared clear and were particulate free. The supernatant of the positive control visually appeared red and were particulate free. The test articles and controls were read at 540 nm in a spectrophotometer.
The hemolytic index (percent hemolysis) was interpreted using the following equation:
[formula] Where: Hemoglobin Released (mg/mL)=(Optical Density×X Coefficient+Constant)×16 Hemoglobin Present (mg/ml)=Diluted Blood 10±1 mg/mL
The corrected hemolytic index was calculated by subtracting the hemolytic index of the PBS blank solution from the hemolytic index of the test article and controls. […]

MRSA biofilms = assay: EBEC, biofilms on PEEK membranes, eradication of all detectable bacteria (Example 2); format: cell-based, Staphylococcus aureus; details: ~2×10^11 cells per PEEK membrane, eradicate all detectable bacteria
Experimental: The fourth test that was performed was the effective biofilm eradication concentration (EBEC). To determine the EBEC, biofilms of MRSA and P. aeruginosa ATCC 27853 were grown on the surface of PEEK membranes using a previously established protocol. Briefly, 500 mL of brain heart infusion (BHI) broth were inoculated with 10^5 cells/mL of MRSA or P. aeruginosa. BHI broth was placed into a membrane biofilm reactor and placed on a hot plate set at 34° C. for 24 hours with a stir bar rotating at 130 rpm. Following the initial 24-hour growth period, a 10% BHI broth solution was flowed through the reactor at a rate of 6.944 mL/min for another 24 hours. After 48 hours of growth, each PEEK membrane had biofilm growth on it. In this experiment, there were ˜2×10^11 cells of MRSA per PEEK membrane and ˜2×10^10 cells of P. aeruginosa per PEEK membrane. The EBEC was defined as the concentration of the compound that was required to eradicate all detectable amounts (100%) of bacteria within the biofilms.

**Q.** With NCCCNCCCNCc1ccccc1 [CZ-7, benzylnorspermidine] as the compound, how does the MIC (P. aeruginosa biofilms) read?
**A.** > 5000 µg/mL

**Q.** CC(C)CNCCCNCCCNCc1cc(CNCCCNCCCNCC(C)C)cc(-c2ccccc2)c1 [CZ-86, N^1,N^1′-([1,1′-biphenyl]-3,5-diylbis(methylene))bis(N^3-(3-(isobutylamino)propyl)propane-1,3-diamine), hydrochloride salt] was tested. Which “Average Hemolytic Index (% Hemolysis)” value (human blood) did it give?
**A.** 0.76 % Hemolysis

**Q.** What about the “Hemolytic Grade” value (human blood) of the same compound?
**A.** non-hemolytic

**Q.** What about the “difference between the hemolytic indexes of test article and negative control” value (human blood) of the same compound?
**A.** 0.00%

**Q.** What about the “Average Optical Density” value (human blood; 540 nm) of the same compound?
**A.** 0.003

**Q.** And the “Optical Density” value (human blood; 540 nm, three tubes, 37 ± 2° C., 3 hours)?
**A.** 0.003

**Q.** And the “Corrected Hemolytic Index (% Hemolysis)” value (human blood; hemolytic index of the PBS blank subtracted)?
**A.** 0.00 % Hemolysis

**Q.** What about the “Hemolytic Index” value (human blood; three tubes) of the same compound?
**A.** 0.764

**Q.** Which “EBEC (μg/mL/μM)” value (MRSA biofilms) does the source give for CN[C@H](CC(C)C)C(=O)N[C@H]1C(=O)N[C@@H](CC(N)=O)C(=O)N[C@H]2C(=O)N[C@H]3C(=O)N[C@H](C(=O)N[C@H](C(=O)O)c4cc(O)cc(O)c4-c4cc3ccc4O)[C@H](O)c3ccc(c(Cl)c3)Oc3cc2cc(c3O[C@@H]2O[C@H](CO)[C@@H](O)[C@H](O)[C@H]2O[C@H]2C[C@](C)(N)[C@H](O)[C@H](C)O2)Oc2ccc(cc2Cl)[C@H]1O [vancomycin, reference compound] here?
**A.** > 20,000 μg/mL and > 13,460 μM

Source: patent US10440955B2, “Methods comprising a biocidal polyamine” (Curza Global, LLC, priority 2013, dated 2019)
